Source: patent US8378098B2, “Imidazol[1,2-α]quinoxalines and derivatives for the treatment of cancers” (Universite de Montpellier I, priority 2007, dated 2013)
“Also recorded” adds a separate entry of the source.

Legend:
[1] = system: human T lines not infected by HTLV-I (CEM, Jurkatt, Molt-4 and HuT-78); assay: cell growth of human T lines not infected by HTLV-I (CellTiter 96, trypan blue exclusion); format: cell-based; conditions: 1 to 10 μM, 24-96 h
Method: (§1) FIG. 2: HTLV-I-positive and HTLV-I-negative malignant human cell lines are sensitive to EAPB0203, but activated or inactivated normal T lymphocytes are resistant. Effects of EAPB0203 on the growth of human T lines not infected by HTLV-I (CEM, Jurkatt, Molt-4 and HuT-78), HTLV-I-positive human T lines (HuT-102 and C8166, and MT2), and normal lymphocytes at rest or activated by PHA. The activated normal PBMC were supplemented with 2% PHA. EAPB0203 was added at the concentrations indicated in mole/l for 24-96 h. Cell growth is analyzed with the “CellTiter 96®” nonradioactive cell growth kit. The results are expressed as a percentage of the control (0.1% DMSO) and represent the mean of the results obtained in three independent experiments.
(§2) The in vitro activity of EAPB0203 on adult T-cell leukemia (ATL) transformed by retrovirus HTLV-I (HuT-102, MT2 . . . ) and malignant HTLV-I-negative T-cells (CEM, Jurkatt . . . ) was evaluated. Initially, the effect of EAPB0203 on cell growth of these lines was evaluated by two techniques, the nonradioactive “CellTiter 96®” cell growth kit and the trypan blue exclusion method.

[2] = system: HTLV-I-positive human T lines (HuT-102 and C8166, and MT2); assay: cell growth of HTLV-I-positive human T lines (CellTiter 96, trypan blue exclusion); format: cell-based; conditions: 1 to 10 μM, 24-96 h
Method: as §1, §2

[3] = system: leukaemic cells derived from two patients with ATL; assay: cell proliferation of leukaemic cells derived from patients with ATL; format: cell-based, human
[4] = system: RPMI7591 (melanoma); assay: in vitro cytotoxicity on RPMI7591 melanoma line; format: cell-based; conditions: Homo sapiens; Table 2; unit inferred; read-out: IC50 RPMI7591
Text: (§3) Several human carcinoma cell lines were used: • Lines A375, M4Be, RPMI7591 from human melanoma. • Line LS174T from colon carcinoma. • Line A 2780 from ovarian carcinoma. • The Raji line from B lymphoma. • Line MCF7 from breast carcinoma.

[5] = determination of the lethal dose 50 (LD50) in the mouse; format: in vivo
[6] = system: LS174T (colon cancer); assay: in vitro cytotoxicity on LS174T colon cancer line; format: cell-based; conditions: Homo sapiens, Table 2, unit inferred
Text: as §3

[7] = system: treated cell lines; assay: mitochondrial route of apoptosis (Rhodamine 123 transmembrane potential, cytochrome C localization); format: cell-based, human
Text: Mitochondria play a central role in apoptotic mechanisms. The first detectable cellular disturbance during the apoptotic process is a reduction in mitochondrial transmembrane potential.
Indeed, activation of the intrinsic mitochondrial route in the cells studied is shown.

[8] = system: MCF7 (breast cancer); assay: in vitro cytotoxicity on MCF7 breast cancer line; format: cell-based; conditions: Homo sapiens, Table 2, unit inferred
Text: as §3

[9] = system: normal lymphocytes activated or not activated by PHA; assay: growth of normal lymphocytes at rest or activated by PHA; format: cell-based, human; conditions: two healthy subjects
Method: as §1, §2

[10] = lethal doses 50% reported in the pharmacokinetic study; format: in vivo; conditions: species and route not stated in the sentence (rat study)
Method: Methods of assaying compounds EAPB0203, EAPB0503 and EAPB0603 by high performance liquid chromatography and detection by mass spectrometry (LC/ESI-MS) were developed and validated in human and rat plasmas. Pre-treatment of the samples consists of a liquid solid extraction preceded by precipitation of plasma proteins in acid medium. The chromatographic column used is C8 Zorbax eclipse XDB and the mobile phase (gradient) a mixture of acetonitrile and formate buffer (pH 3) (flow rate, 0.8 ml/min). The […] from 92 to 113%. The extraction coefficients are higher than 72%. The quantification limit is 5 μg/l for all analytes. Stability tests of the compounds in the matrices were also carried out. These methods were used to determine the pharmacokinetic parameters of compounds EAPB0203, EAPB0503 and EAPB0603 in the rat. The lethal doses 50% of compounds EAPB0203 and EAPB0503 are respectively 14.8 and 7.6 mg/kg.

[11] = system: CEM, HuT-102, MT2, and Jurkatt cells; assay: cell cycle analysis by flow cytometry (propidium iodide); format: cell-based, human
Method: (A) Effects of EAPB0203 on the distribution of the cell cycle of CEM, HuT-102, MT2, and Jurkatt cells. The cells treated by EAPB0203 were marked with propidium iodide ([…]) and analysis of the cellular cycle was carried out by FACScan flow cytometry. (b) The pre-G1 percentage represents the apoptotic cells. (c) The cells in cycle, the sum of phases (S+G2/M), are represented as a percentage of non-apoptotic cells. The results represent two independent experiments.
The mechanisms of inhibition of cell proliferation caused by EAPB0203 in the cell lines studied were determined by flow cytometry. This study evaluated the distribution of cells in the various phases of the cell cycle. […] This pre-G0/G1 peak corresponds to cells whose DNA content is decreased by loss of cleaved DNA fragments during cell death (FIG. 3).

## CNc1nc2ccccc2n2c(CCc3ccccc3)cnc12 [EAPB0203, N-methyl-1-(2-phenylethyl)imidazo[1,2-a]quinoxalin-4-amine]
[1]
  growth of malignant T-cells not associated with HTLV-I: sensitive; also recorded: progressive, dose-dependent inhibition
[2]
  growth of ATL cells (HTLV-I-positive): sensitive; also recorded: progressive, dose-dependent inhibition
[3]
  cell proliferation of leukaemic cells from ATL patients: induced inhibition of cell proliferation
[4]
  IC50: 4.23 ± 0.48 µM
[5]
  apparent toxicity after 48 h at the highest doses: did not display any apparent toxicity
[5]; in vivo, doses 30, 300 and 450 mg/kg, 48 h
  LD50 at 48 h: > 450 mg/kg
[6]
  IC50: 4.12 ± 0.67 µM
[7]; Rhodamine 123, flow cytometry
  mitochondrial transmembrane potential: drop in the mitochondrial transmembrane potential
[7]; treated cell lines
  sub-cellular localization of cytochrome C: presence of cytochrome C in the cytoplasm
[8]
  IC50: 1.08 ± 0.46 µM
[9]
  growth of normal lymphocytes: completely resistant
[10]
  lethal doses 50%: 14.8 mg/kg
[11]
  pre-G0/G1 apoptotic population: presence of a pre-G0/G1 apoptotic population
[11]; propidium iodide
  distribution of cells in the phases of the cell cycle: induces the termination of the cell cycle in phase G2/M; also recorded: progressive accumulation of cells in phase G2
